Results reported in ChEMBL document CHEMBL5725348, “Benzimidazole inhibitors of the sodium channel” (2017).

experiment: Nav1.5 Assay: To assess the potential cardiac liability of compounds at an early stage in the drug discovery process, a Nav1.5 sodium channel screening assay was be performed on Molecular Device's PatchXpress™ automated electrophysiology platform. Under voltage-clamp conditions, Nav1.5 currents were recorded from HEK cells expressing the human Nav1.5 channel in the absence and presence of increasing concentrations of the test compound to obtain an IC50 value. The external recording solution contained (in mM): 90 TEACl, 50 NaCl, 1.8 CaCl, 1 MgCl2, 10 HEPES, 10 glucose, adjusted to pH 7.4 with TEA-OH and to 300 mOsm with sucrose (if necessary), while the internal patch pipette solution contained (in mM): 129 CsF, 2 MgCl2, 11 EGTA, 10 HEPES, 3 Na2ATP adjusted to pH 7.2 with CsOH and to 290 mOsm with sucrose (if necessary). Nav1.5 channel currents were evoked using a cardiac action potential waveform at 1 Hz, digitized at 31.25 kHz and low-pass filtered at 12 kHz.; conditions: HEK293

Row | SMILES | IC50 [µM]
1 | NCc1nc2cc(C(F)(F)F)cc(C(F)(F)F)c2[nH]1 | > 10
2 | O=C1CNCCN1Cc1nc2cc(C(F)(F)F)cc(C(F)(F)F)c2[nH]1 | > 10
3 | O=C1CNCCN1Cc1nc2cc(C(F)(F)F)c(C(F)(F)F)cc2[nH]1 | > 10
4 | NCC(=O)NCc1nc2cc(Cl)c(Cl)cc2[nH]1 | > 10
5 | NCCc1nc2cc(C(F)(F)F)cc(C(F)(F)F)c2[nH]1 | > 10
6 | CNCc1nc2cc(C(F)(F)F)cc(C(F)(F)F)c2[nH]1 | > 10
7 | CC(C)(N)Cc1nc2cc(C(F)(F)F)cc(C(F)(F)F)c2[nH]1 | 3.6
8 | CC(C)C[C@H](CN)Cc1nc2c(C(F)(F)F)cc(C(F)(F)F)cc2[nH]1 | > 10
9 | NCC(=O)NCc1nc2cc(C(F)(F)F)cc(C(F)(F)F)c2[nH]1 | > 10
10 | NCCCc1nc2cc(C(F)(F)F)cc(C(F)(F)F)c2[nH]1 | 7.5
11 | CC1(NC(=O)CN2CC(Cc3nc4c(C(F)(F)F)cc(C(F)(F)F)cc4[nH]3)C2)CCC1 | > 10
12 | CC(C)(N)C(=O)NCc1nc2cc(C(F)(F)F)cc(C(F)(F)F)c2[nH]1 | > 10
13 | FC(F)(F)c1cc(C(F)(F)F)c2nc(CC3CNC3)[nH]c2c1 | > 10
